# Values quoted from earlier work in patent US20200281877A1, “METHOD FOR PREVENTION AND TREATMENT OF ACNE, ECZEMA, PSORIASIS, AND RELATED DERMATOLOGICAL CONDITIONS WITH COMPOSITION COMPRISING A SPHINGOLIPID AND SULPHUR COMPOUNDS” (priority 2018, published 2020).
# Test system: SA_SCD (sphingolipid ceramide N-deacylase)
compound,measurement,setting,value
[Zn+2] [bivalent zinc (Zn^2+)],hydrolytic activity of SA_SCD,optimal pH 6.0,strongly inhibited
same,synthetic activity of SA_SCD,optimal pH 7.5,strongly inhibited
